Assay results reported in EP4635500A1, “THERAPEUTIC AGENT FOR BACTERIAL INFECTION” (Sumitomo Pharma Co., Ltd., priority 2022, dated 2024).
Converted amounts (≈) assume the structure as drawn. Where two headings read alike, the source gives them in different places.

Key:
Providencia rettgeri = assay: MIC, broth microdilution, standard strains and Japanese clinical isolates (Example 5, Table 4); format: cell-based; details: ATCCBAA2525; KUB4010 Providencia rettgeri ATCC BAA-2525, OXA-181
CRE and CPE strains = assay: MIC, broth microdilution, standard strains and Japanese clinical isolates (Example 5, Table 4 continued; organism of each KUB strain not given); format: cell-based
Enterobacterales = assay: MIC, broth microdilution, CDC/FDA Antibiotic Resistance Isolate Bank (Example 7, Tables 8, 11, 12); format: cell-based; details: read-out: MIC
A. baumannii = assay: MIC, broth microdilution, CDC/FDA Antibiotic Resistance Isolate Bank (Example 7, Tables 9, 13, 14); format: cell-based, Acinetobacter baumannii; details: for MIC: Acinetobacter baumannii, read-out: MIC
[1] = MIC distribution, metallo-β-lactamase-producing A. baumannii, inhibitor µg/mL in parentheses

Molecule `C[C@H]1[C@H](NC(=O)/C(=N\OC(C)(C)C(=O)O)c2csc(N)n2)C(=O)N1S(=O)(=O)O` [Aztreonam, aztreonam] has an MIC (Providencia rettgeri) of 1 µg/mL (≈ 2.3 µM), an MIC (CRE and CPE strains; strain KUB3149, carbapenemase gene NDM-1, read-out: MIC) of 8 µg/mL (≈ 18.4 µM) and an MIC (CRE and CPE strains; strain KUB3150, carbapenemase gene OXA-48, read-out: MIC) of 8 µg/mL (≈ 18.4 µM). It also gave an MIC (CRE and CPE strains; strain KUB3151, carbapenemase gene IMP-1, read-out: MIC) of 0.25 µg/mL (≈ 0.574 µM), an MIC (CRE and CPE strains; strain KUB3158, carbapenemase gene OXA-48) of 0.12 µg/mL (≈ 0.276 µM) and an MIC (CRE and CPE strains; strain KUB3163, carbapenemase gene IMP-1) of 0.12 µg/mL (≈ 0.276 µM). It also gave an MIC (CRE and CPE strains; strain KUB3164, carbapenemase gene IMP-6) of 16 µg/mL (≈ 36.7 µM), an MIC (CRE and CPE strains; strain KUB3165, carbapenemase gene IMP-34) of at most 0.03 µg/mL and an MIC (CRE and CPE strains; strain KUB3166, carbapenemase gene IMP-1) of 4 µg/mL (≈ 9.19 µM). It also gave an MIC (CRE and CPE strains; strain KUB3628, carbapenemase gene IMP-1) of 0.06 µg/mL (≈ 0.138 µM), an MIC (Enterobacterales; Enterobacter cloacae, Enterobacter cloacae KUB No. 5807, AR Bank #501) of 1 µg/mL (≈ 2.3 µM) and an MIC (Enterobacterales; Enterobacter cloacae, Enterobacter cloacae group, KUB No. 5629, AR Bank # 132) of 2 µg/mL (≈ 4.59 µM). It also gave an MIC (Enterobacterales; Enterobacter cloacae, KUB No. 5529, AR Bank# 32) of 32 µg/mL (≈ 73.5 µM), an MIC (Enterobacterales; Enterobacter cloacae, KUB No. 5557, AR Bank# 60) of 32 µg/mL (≈ 73.5 µM) and an MIC (Enterobacterales; Enterobacter cloacae, KUB No. 5570, AR Bank # 73) of 4 µg/mL (≈ 9.19 µM). It also gave an MIC (Enterobacterales; Enterobacter cloacae, KUB No. 5778, AR Bank # 432) of 32 µg/mL (≈ 73.5 µM), an MIC (Enterobacterales; Escherichia coli, Escherichia coli KUB No. 5796, AR Bank #452) of 0.12 µg/mL (≈ 0.276 µM) and an MIC (Enterobacterales; Escherichia coli, Escherichia coli KUB No. 5803, AR Bank #861) of 1 µg/mL (≈ 2.3 µM). For the same molecule, the MIC (Enterobacterales; Escherichia coli, KUB No. 5552, AR Bank# 55) was 32 µg/mL (≈ 73.5 µM), the MIC (Enterobacterales; Escherichia coli, KUB No. 5555, AR Bank# 58) was 8 µg/mL (≈ 18.4 µM) and the MIC (Enterobacterales; Escherichia coli, KUB No. 5564, AR Bank # 67) was 4 µg/mL (≈ 9.19 µM). The MIC (Enterobacterales; Escherichia coli, KUB No. 5566, AR Bank # 69) was 4 µg/mL (≈ 9.19 µM), the MIC (Enterobacterales; Escherichia coli, KUB No. 5574, AR Bank # 77) was 0.06 µg/mL (≈ 0.138 µM) and the MIC (Enterobacterales; Escherichia coli, KUB No. 5578, AR Bank # 81) was 8 µg/mL (≈ 18.4 µM). It also gave an MIC (Enterobacterales; Escherichia coli, KUB No. 5581, AR Bank # 84) of 0.5 µg/mL (≈ 1.15 µM), an MIC (Enterobacterales; Escherichia coli, KUB No. 5582, AR Bank # 85) of 16 µg/mL (≈ 36.7 µM) and an MIC (Enterobacterales; Escherichia coli, KUB No. 5583, AR Bank # 86) of 4 µg/mL (≈ 9.19 µM). For the same molecule, the MIC (Enterobacterales; Escherichia coli, KUB No. 5586, AR Bank # 89) was 16 µg/mL (≈ 36.7 µM), the MIC (Enterobacterales; Escherichia coli, KUB No. 5615, AR Bank # 118) was 32 µg/mL (≈ 73.5 µM) and the MIC (Enterobacterales; Escherichia coli, KUB No. 5646, AR Bank # 149) was 0.5 µg/mL (≈ 1.15 µM). The MIC (Enterobacterales; Escherichia coli, KUB No. 5647, AR Bank # 150) was 32 µg/mL (≈ 73.5 µM), the MIC (Enterobacterales; Escherichia coli, KUB No. 5648, AR Bank # 151) was 32 µg/mL (≈ 73.5 µM) and the MIC (Enterobacterales; Escherichia coli, KUB No. 5764, AR Bank # 368) was 0.06 µg/mL (≈ 0.138 µM). The MIC (Enterobacterales; Escherichia coli, KUB No. 5767, AR Bank # 371) was 16 µg/mL (≈ 36.7 µM), the MIC (Enterobacterales; Escherichia coli, KUB No. 5769, AR Bank # 373) was 16 µg/mL (≈ 36.7 µM) and the MIC (Enterobacterales; Escherichia coli, KUB No. 5770, AR Bank # 374) was 16 µg/mL (≈ 36.7 µM). The MIC (Enterobacterales; Escherichia coli, KUB No. 5774, AR Bank # 378) was 0.12 µg/mL (≈ 0.276 µM), the MIC (Enterobacterales; Escherichia coli, KUB No. 5779, AR Bank # 433) was 32 µg/mL (≈ 73.5 µM) and the MIC (Enterobacterales; Escherichia, KUB No. 57, AR Bank # 436 (row cut off)) was 32 µg/mL (≈ 73.5 µM). For the same molecule, the MIC (Enterobacterales; Klebsiella aerogenes, Enterobacter aerogenes, KUB No. 5559, AR Bank # 62) was 16 µg/mL (≈ 36.7 µM), the MIC (Enterobacterales; Klebsiella aerogenes, Enterobacter aerogenes, KUB No. 5571, AR Bank # 74) was 0.12 µg/mL (≈ 0.276 µM) and the MIC (Enterobacterales; Klebsiella aerogenes, Enterobacter aerogenes, KUB No. 5658, AR Bank # 161) was 32 µg/mL (≈ 73.5 µM). The MIC (Enterobacterales; Klebsiella aerogenes, Enterobacter aerogenes, KUB No. 5777, AR Bank # 431) was 16 µg/mL (≈ 36.7 µM), the MIC (Enterobacterales; Klebsiella oxytoca, KUB No. 5644, AR Bank # 147) was 4 µg/mL (≈ 9.19 µM) and the MIC (Enterobacterales; Klebsiella oxytoca, KUB No. 5771, AR Bank # 375) was 32 µg/mL (≈ 73.5 µM). It also gave an MIC (Enterobacterales; Klebsiella pneumoniae, KUB No. 5531, AR Bank# 34) of 0.06 µg/mL (≈ 0.138 µM), an MIC (Enterobacterales; Klebsiella pneumoniae, KUB No. 5573, AR Bank # 76) of 0.25 µg/mL (≈ 0.574 µM) and an MIC (Enterobacterales; Klebsiella pneumoniae, KUB No. 5623, AR Bank # 126) of 32 µg/mL (≈ 73.5 µM). For the same molecule, the MIC (Enterobacterales; Klebsiella pneumoniae, KUB No. 5657, AR Bank # 160) was 0.12 µg/mL (≈ 0.276 µM), the MIC (Enterobacterales; Klebsiella pneumoniae, Klebsiella pneumoniae KUB No. 5809, AR Bank #504) was 32 µg/mL (≈ 73.5 µM) and the MIC (Enterobacterales; Morganella morganii, Morganella morganii KUB No. 5824, AR Bank #519) was 32 µg/mL (≈ 73.5 µM). It also gave an MIC (Enterobacterales; Proteus mirabilis, KUB No. 5556, AR Bank# 59) of 0.25 µg/mL (≈ 0.574 µM), an MIC (Enterobacterales; Proteus mirabilis, KUB No. 5652, AR Bank # 155) of 4 µg/mL (≈ 9.19 µM) and an MIC (Enterobacterales; Proteus mirabilis, KUB No. 5653, AR Bank # 156) of at most 0.03 µg/mL. The MIC (Enterobacterales; Proteus mirabilis, KUB No. 5656, AR Bank # 159) was at most 0.03 µg/mL, the MIC (Enterobacterales; Proteus mirabilis, KUB No. 5773, AR Bank # 377) was 4 µg/mL (≈ 9.19 µM) and the MIC (Enterobacterales; Proteus mirabilis, KUB No. 5775, AR Bank # 379) was 0.25 µg/mL (≈ 0.574 µM). For the same molecule, the MIC (Enterobacterales; Providencia rettgeri, KUB No. 5579, AR Bank # 82) was at most 0.03 µg/mL, the MIC (Enterobacterales; Raoultella ornithinolvtica, KUB No. 5631, AR Bank # 134) was 8 µg/mL (≈ 18.4 µM) and the MIC (Enterobacterales; Serratia marcescens, KUB No. 5588, AR Bank # 91) was 32 µg/mL (≈ 73.5 µM). The MIC (Enterobacterales; Serratia marcescens, KUB No. 5618, AR Bank # 121) was 16 µg/mL (≈ 36.7 µM), the MIC (Enterobacterales; Serratia marcescens, KUB No. 5619, AR Bank # 122) was 16 µg/mL (≈ 36.7 µM) and the MIC (Enterobacterales; Serratia marcescens, KUB No. 5620, AR Bank # 123) was 16 µg/mL (≈ 36.7 µM). It also gave an MIC (Enterobacterales; Serratia marcescens, KUB No. 5621, AR Bank # 124) of 8 µg/mL (≈ 18.4 µM), an MIC (Enterobacterales; Serratia marcescens, KUB No. 5627, AR Bank # 130) of 16 µg/mL (≈ 36.7 µM) and an MIC (Enterobacterales; Serratia marcescens, KUB No. 5628, AR Bank # 131) of 16 µg/mL (≈ 36.7 µM). It also gave an MIC (Enterobacterales; Serratia marcescens, Serratia marcescens KUB No. 5825, AR Bank #520) of 2 µg/mL (≈ 4.59 µM), an MIC (A. baumannii; A. baumannii KUB No. 5585, AR Bank #88, OXA-64, NDM-1) of 32 µg/mL (≈ 73.5 µM) and an MIC (A. baumannii; A. baumannii KUB No. 5714, AR Bank #281, OXA-82) of 32 µg/mL (≈ 73.5 µM). The MIC (A. baumannii; KUB No. 5719, AR Bank #286) was 32 µg/mL (≈ 73.5 µM), the MIC (A. baumannii; KUB No. 5720, AR Bank #287) was 32 µg/mL (≈ 73.5 µM) and the MIC (A. baumannii; KUB No. 5727, AR Bank #294) was 32 µg/mL (≈ 73.5 µM). For the same molecule, the “Number of isolates at MIC 32 µg/mL” value (A. baumannii; [1]) was 1 and the “Number of isolates at MIC >64 µg/mL” value (A. baumannii; [1]) was 3.
